Source: ChEMBL document CHEMBL1128980, “(R)-3-(6-chloro-1-isopropylbenzimidazole-4-carboxamido)quinuclidine: A high affinity ligand for the (R)-zacopride binding site” (Bioorg Med Chem Lett, 1996)

Experiments:
[1] = target: T1, 5-hydroxytryptamine receptor 3A (Homo sapiens, UniProt P46098); assay: Binding affinity for 5-hydroxytryptamine 3 receptor by displacement of [3H](R)-zacopride from ondansetron-treated NG-108-15 cell membranes
T1 sequence (P46098 whole entry): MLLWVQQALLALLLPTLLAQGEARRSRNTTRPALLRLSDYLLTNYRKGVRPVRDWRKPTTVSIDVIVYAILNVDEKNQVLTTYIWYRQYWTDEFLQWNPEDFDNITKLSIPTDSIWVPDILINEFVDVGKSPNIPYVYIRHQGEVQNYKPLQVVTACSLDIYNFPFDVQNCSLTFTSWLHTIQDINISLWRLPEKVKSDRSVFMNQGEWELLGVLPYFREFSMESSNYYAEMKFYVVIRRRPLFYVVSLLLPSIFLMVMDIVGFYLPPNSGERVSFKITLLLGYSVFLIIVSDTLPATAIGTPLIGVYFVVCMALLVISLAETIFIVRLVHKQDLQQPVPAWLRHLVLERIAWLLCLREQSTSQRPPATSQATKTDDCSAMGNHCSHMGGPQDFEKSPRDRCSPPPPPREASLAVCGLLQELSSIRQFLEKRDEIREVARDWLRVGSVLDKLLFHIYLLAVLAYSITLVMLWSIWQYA

[2] = target: T1, 5-hydroxytryptamine receptor 3A; assay: Binding affinity for 5-hydroxytryptamine 3 receptor by displacement of [3H]-BRL 43694 from NG-108-15 cell membranes
[3] = target: 5-hydroxytryptamine receptor 4 (Cavia porcellus, UniProt O70528); assay: Binding affinity for 5-hydroxytryptamine 4 receptor by displacement of [3H]GR-113808 from guinea pig brain striatum.
5-hydroxytryptamine receptor 4, sequence (O70528 whole entry): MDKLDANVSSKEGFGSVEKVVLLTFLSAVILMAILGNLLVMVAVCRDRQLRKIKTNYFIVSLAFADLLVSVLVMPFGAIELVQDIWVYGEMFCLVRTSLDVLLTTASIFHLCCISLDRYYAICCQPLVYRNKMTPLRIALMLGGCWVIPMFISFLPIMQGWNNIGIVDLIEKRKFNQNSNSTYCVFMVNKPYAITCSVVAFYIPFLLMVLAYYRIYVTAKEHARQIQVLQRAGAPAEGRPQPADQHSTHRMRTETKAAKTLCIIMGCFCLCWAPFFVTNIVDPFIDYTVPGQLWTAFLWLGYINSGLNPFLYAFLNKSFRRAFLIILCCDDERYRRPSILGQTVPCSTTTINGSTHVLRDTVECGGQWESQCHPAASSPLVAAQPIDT

[4] = target: T2, Serotonin 3 (5-HT3) receptor (Rattus norvegicus, UniProt P35563+Q9JJ16); assay: Binding affinity for 5-hydroxytryptamine 3 receptor by displacement of racemic [3H]zacopride from rat cortex
T2 sequence (P35563 whole entry): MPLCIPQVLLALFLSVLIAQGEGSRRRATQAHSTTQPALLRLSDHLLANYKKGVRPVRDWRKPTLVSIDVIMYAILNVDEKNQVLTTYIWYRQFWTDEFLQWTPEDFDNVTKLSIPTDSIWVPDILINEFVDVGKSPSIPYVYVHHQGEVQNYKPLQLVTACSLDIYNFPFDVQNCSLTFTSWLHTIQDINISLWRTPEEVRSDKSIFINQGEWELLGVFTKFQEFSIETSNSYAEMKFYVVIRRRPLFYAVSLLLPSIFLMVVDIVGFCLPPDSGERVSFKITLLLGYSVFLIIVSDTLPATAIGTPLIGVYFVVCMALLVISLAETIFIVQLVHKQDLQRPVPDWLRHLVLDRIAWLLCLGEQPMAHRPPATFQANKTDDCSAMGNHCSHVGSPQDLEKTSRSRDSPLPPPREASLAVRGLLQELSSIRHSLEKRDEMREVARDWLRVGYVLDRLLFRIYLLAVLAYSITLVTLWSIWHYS
T2 sequence (Q9JJ16 whole entry): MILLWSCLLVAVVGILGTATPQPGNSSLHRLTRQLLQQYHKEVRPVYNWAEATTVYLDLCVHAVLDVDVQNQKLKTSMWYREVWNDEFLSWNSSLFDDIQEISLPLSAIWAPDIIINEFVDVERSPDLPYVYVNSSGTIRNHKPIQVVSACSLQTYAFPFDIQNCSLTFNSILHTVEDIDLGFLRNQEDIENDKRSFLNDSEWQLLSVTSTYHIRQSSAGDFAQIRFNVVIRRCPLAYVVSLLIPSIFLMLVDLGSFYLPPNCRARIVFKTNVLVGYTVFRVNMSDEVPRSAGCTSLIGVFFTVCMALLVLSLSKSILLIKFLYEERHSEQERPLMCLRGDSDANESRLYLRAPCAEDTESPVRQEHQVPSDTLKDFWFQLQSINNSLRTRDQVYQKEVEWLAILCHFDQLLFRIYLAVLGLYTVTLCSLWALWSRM

Compound	Ki [1] [nM]	Ki [2] [nM]	Ki [3] [nM]	Ki [4] [nM]
CC(C)n1cnc2c(C(=O)NC3CC4CCC(C3)N4C)cc(Cl)cc21 (configuration not stated)	20	1	158	
CC(C)n1cnc2c(C(=O)N[C@H]3CN4CCC3CC4)cc(Cl)cc21			24	
COc1cc(N)c(Cl)cc1C(=O)N[C@H]1CN2CCC1CC2 [(R)ZACOPRIDE]			2820	3.72
COc1cc(N)c(Cl)cc1C(=O)N[C@@H]1CN2CCC1CC2			437	
